Read-outs that look alike come from different tables or passages of the source.
Experiments:
[1] = molecular target: T1, BromoTag-Brd2 (Homo sapiens, UniProt O60885+P40337, L387A); assay: Dose-response degradation assay (western blot, 6 h) in heterozygous BromoTag-Brd2 HEK293 cells; format: cell-based; conditions: for pDC50: second-generation B&H-PROTACs (diastereomeric mixtures), mean (±S.E) of three experiments; for hook effect: at the higher concentrations used, 1-10 μM
T1 construct: comprising residues 368-440 of human Brd4; Brd2 (endogenous protein, fusion partner in the same polypeptide); eGFP-P2A (upstream marker in the knock-in cassette) (N, cleaved yes); expressed in transfected cells; host or cells: HEK293, heterozygous CRISPR knock-in at the endogenous BRD2 locus
T1 sequence (P40337 whole entry, other chains not shown, the tested form may be a part): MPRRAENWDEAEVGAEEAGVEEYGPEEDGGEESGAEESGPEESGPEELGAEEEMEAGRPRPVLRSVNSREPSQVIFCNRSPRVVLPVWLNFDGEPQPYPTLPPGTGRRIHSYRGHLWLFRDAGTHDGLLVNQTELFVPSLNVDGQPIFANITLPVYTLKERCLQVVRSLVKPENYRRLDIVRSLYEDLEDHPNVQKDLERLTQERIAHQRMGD
Procedure: Dose-response Degradation Assays. All dose-response degradation assays were performed on the genotype verified heterozygous BromoTag-Brd2 HEK293 cell line. Heterozygous BromoTag-Brd2 HEK293 cells were plated at a density of 5×10^5 cells per well of a six healthy plate a day before initiation of the titration experiment. PROTAC compounds were dissolved in DMSO at a concentration of 10 mM, from these stock concentrations, PROTAC compounds were diluted to appropriate concentrations using DMSO in the range of 10 μM-1 nM. […] Control compounds such as MZ1, cis-MZ1 were similarly dissolved in DMSO to the appropriate concentration. […] Cells were washed twice with PBS before being harvested.
Western Blotting. […] The membranes were blocked for 1 h prior to incubation with the primary antibodies using 5% Milk TBST. […] Following overnight incubation with the primary antibodies at 4° C., the membranes were incubated with secondary antibodies (Anti-rabbit, Abcam AB216773, 1:5000 or anti-mouse, Abcam AB216774, 1:5000) and hFAB™ Rhodamine Anti-Tubulin Antibody (Biorad, 12004165, 1:10000) for one h and then imaged with a Bio-Rad imager (LI-COR Biosciences). All western blots were analysed for band intensities using Image Lab from Bio-Rad (LI-COR, Biosciences). The data extracted from these blots were then plotted and analysed using Prism (v. 8.2.0, GraphPad).

[2] = tested on: untagged Brd2 and endogenous Brd3 and Brd4; assay: Off-target degradation of endogenous BET proteins (western blot) in BromoTag-Brd2 HEK293 cells; format: cell-based, human; conditions: 1 nM to 10 μM; 6 h
Procedure: Dose-response Degradation Assays. All dose-response degradation assays were performed on the genotype verified heterozygous BromoTag-Brd2 HEK293 cell line. Heterozygous BromoTag-Brd2 HEK293 cells were plated at a density of 5×10^5 cells per well of a six healthy plate a day before initiation of the titration experiment. PROTAC compounds were dissolved in DMSO at a concentration of 10 mM, from these stock concentrations, PROTAC compounds were diluted to appropriate concentrations using DMSO in the range of 10 μM-1 nM. The compounds were then added to a 2 mL of DMEM (Invitrogen, Carlsebad, CA, USA) supplemented with 10% (v/v) Fetal bovine serum (FBS) (Thermo Fisher, Waltham, MA, USA) and 1% (v/v) penicillin/streptomycin (pen/strep) (#15140122, Thermo Fisher, Waltham, MA, USA) and added to the cells at initiation of the experiment. Control compounds such as MZ1, cis-MZ1 were similarly dissolved in DMSO to the appropriate concentration. All titration experiment were performed for a total of 6 hours prior to being harvested and were kept at 37° C., 5% CO2, and 95% humidity once treatment was applied until right before harvesting. Cells were washed twice with PBS before being harvested.
Western Blotting. […] Total protein quantity was determined using the BCA protein assay (#23225, Pierce, Rockford, Illinois). Protein concentration was determined using the BCA assay (ThermoFisher Scientific, 23225). […] All western blots were analysed for band intensities using Image Lab from Bio-Rad (LI-COR, Biosciences). The data extracted from these blots were then plotted and analysed using Prism (v. 8.2.0, GraphPad).
Development of a Knock-in Cell Line with BromoTag fused to endogenous Brd2 using CRISPR. […] To this end, the endogenous BET family protein Brd2 was chosen as a model target, due to the availability of well-established antibody for Brd2 detection, and expression of a single protein isoform as well detected band in the western blot (Filippakopoulos, P.; Knapp, S., Nat Rev Drug Discov. 2014, 13 (5), 337-356). […]

[3] = Ab: Brd2, second-generation B&H-PROTACs, 6 h
[4] = Ab: Brd4^BD2 L387A, second-generation B&H-PROTACs, 6 h
[5] = 6 h, range over the two antibodies

## CC[C@@H](C(=O)NCCOCCCOCC(=O)N[C@H](C(=O)N1C[C@H](O)C[C@H]1C(=O)N[C@@H](C)c1ccc(-c2scnc2C)cc1)C(C)(C)C)[C@@H]1N=C(c2ccc(Cl)cc2)c2c(sc(C)c2C)-n2c(C)nnc21 (relative stereo) [ET-ARV-771 (21), (2S,4R)-1-((2S,15R*)-(tert-butyl)-15-((S*)-4-(4-chlorophenyl)-2,3,9-trimethyl-6H-thieno[3,2-f][1,2,4]triazolo[4,3-a][1,4]diazepin-6-yl)-4,14-dioxo-6,10-dioxa-3,13-diazaheptadecanoyl)-4-hydroxy-N—((S)-1-(4-(4-methylthiazol-5-yl)phenyl)ethyl)pyrrolidine-2-carboxamide]
[1]; 6 h
  DC50: ~1000 nM
  Dmax, BromoTag-Brd2: < 70%
  hook effect: strong hook effect
[1]; Ab: Brd2, 6 h
  pDC50: 5.7 ± 1.8
[1]; [3]
  Dmax (%): 51%
[1]; Ab: Brd4^BD2 L387A, 6 h
  pDC50: 6.1 ± 0.3
[1]; [4]
  Dmax (%): 69%

## CC[C@@H](C(=O)NCCOCCOCCOCC(=O)N[C@H](C(=O)N1C[C@H](O)C[C@H]1C(=O)NCc1ccc(-c2scnc2C)cc1)C(C)(C)C)[C@@H]1N=C(c2ccc(Cl)cc2)c2c(sc(C)c2C)-n2c(C)nnc21 (relative stereo) [ET-MZ1 (19), (2S,4R)-1-((2S,17R*)-(tert-butyl)-17-((S*)-4-(4-chlorophenyl)-2,3,9-trimethyl-6H-thieno[3,2-f][1,2,4]triazolo[4,3-a][1,4]diazepin-6-yl)-4,16-dioxo-6,9,12-trioxa-3,15-diazanonadecanoyl)-4-hydroxy-N-(4-(4-methylthiazol-5-yl)benzyl)pyrrolidine-2-carboxamide]
[2]
  off-target degradation of untagged Brd2 or the other endogenous BET proteins: no observable off-target degradation

## CC[C@@H](C(=O)OCCOCCOCCOCC(=O)N[C@H](C(=O)N1C[C@H](O)C[C@H]1C(=O)NCc1ccc(-c2scnc2C)cc1)C(C)(C)C)[C@@H]1N=C(c2ccc(Cl)cc2)c2c(sc(C)c2C)-n2c(C)nnc21 (relative stereo) [ET-OMZ1 (23), (S)-13-((2S,4R)-4-hydroxy-2-((4-(4-methylthiazol-5-yl)benzyl)carbamoyl)pyrrolidine-1-carbonyl)-14,14-dimethyl-11-oxo-3,6,9-trioxa-12-azapentadecyl (R*)-2-((S*)-4-(4-chlorophenyl)-2,3,9-trimethyl-6H-thieno[3,2-f][1,2,4]triazolo[4,3-a][1,4]diazepin-6-yl)butanoate]
[1]; [5]
  DC50: 13 to 80 nM
[1]; Ab: Brd2, 6 h
  pDC50: 7.9 ± 0.2
[1]; Ab: Brd4^BD2 L387A, 6 h
  pDC50: 7.1
[1]; HEK293, Ab: Brd4^BD2 L387A, second-generation B&H-PROTACs, 6 h
  Dmax: 90%
[1]; HEK293, read-out: Dmax, BromoTag-Brd2, 6 h
  Dmax: > 75%
[1]; 6 h
  hook effect: strong onset of the hook effect
[2]
  off-target degradation of untagged Brd2 or the other endogenous BET proteins: no observable off-target degradation

## Cc1ncsc1-c1ccc([C@H](C)NC(=O)[C@@H]2C[C@@H](O)CN2C(=O)[C@@H](NC(=O)COCCCOCCNC(=O)[C@H](C)[C@@H]2N=C(c3ccc(Cl)cc3)c3c(sc(C)c3C)-n3c(C)nnc32)C(C)(C)C)cc1 (relative stereo) [ME-ARV-771 (20), (2S,4R)-1-((2S,15R*)-(tert-butyl)-15-((S*)-4-(4-chlorophenyl)-2,3,9-trimethyl-6H-thieno[3,2-f][1,2,4]triazolo[4,3-a][1,4]diazepin-6-yl)-4,14-dioxo-6,10-dioxa-3,13-diazahexadecanoyl)-4-hydroxy-N—((S)-1-(4-(4-methylthiazol-5-yl)phenyl)ethyl)pyrrolidine-2-carboxamide]
[1]; [5]
  DC50: 320 to 400 nM
[1]; Ab: Brd2, 6 h
  pDC50: 6.4 ± 0.6
[1]; [3]
  Dmax (%): 60%
[1]; Ab: Brd4^BD2 L387A, 6 h
  pDC50: 6.5 ± 0.4
[1]; [4]
  Dmax (%): 70%

Source: US20250130239A1, “PROTEIN DEGRADER” (University of Dundee, priority 2021, published 2025)
